Source: patent US20260355137A1, “NOVEL OPHTHALMIC FORMULATION” (FERTIS INDIA PVT LTD, priority 2022, published 2026)
“Also recorded” adds a separate entry of the source.

Legend:
Format in all cases: in vivo, New Zealand rabbit
[1] = system: cataract induced left eye: lens; experiment: Microscopic observations (histopathology) of lens (Table 12)
Description: (§1) An illustrative ophthalmic formulation for treatment of eye disease is set forth below: The formulations provided herein below are tested in cataract induced New Zealand rabbits, and the results are discussed herein below.
(§2) Cataract was induced by injecting 0.5% Methyl Cellulose, which is replaced by aqueous humor in the rabbit eye (i.e., 0.2 mL of Aqueous humor was withdrawn and the same 0.2 mL of 0.5% Methyl cellulose was injected as a replacement). Cataract was observed within 3-4 days of 0.5% Methyl cellulose replacement. Cataract induction was performed to left eye and right eye was served as a control.
(§3) All surviving animals were euthanized on Day 29 by overdose of Thiopental Sodium. Before scheduled euthanasia, the animals were fasted overnight (water allowed) and terminal body weights were recorded. Animals were subjected to detailed macroscopic observation during necropsy. Both right (untreated/uninduced) and left (treated/induced) eyes were collected and cornea and lens were separated, preserved in Davidson fluid. Cornea and lens selected for histopathological evaluation were processed, embedded and sections were cut at 3-5 μm thickness, Sections were placed on grease-free slides and stained with Hematoxylin and Eosin. A 5-step grading system of minimum, mild, moderate, marked and severe will be used to rank microscopic findings for comparison among groups. Data was compiled based on incidences and severity of changes.

[2] = system: intraocular pressure, glaucoma-induced left eye; experiment: Intraocular pressure, tonometer (Table 17); conditions: for Intraocular pressure, Mean, Left eye: Left (induced) eye; for Intraocular pressure, Mean, Left eye / Intraocular pressure, Mean, Right eye: male, 6 animals/group; for intraocular pressure following treatment / mean intraocular pressure initially measured: induced left eye; for intraocular pressure following treatment: 28-day treatment regimen, 0.5%; for mean intraocular pressure initially measured: six animals, within three days
Description: as §2
(§4) Rabbits were observed by ophthalmoscope and slit lamp once in three days for cataract confirmation. Intraocular pressure was measured with a tonometer once in three days for the confirmation of glaucoma.
(§5) Intra-ocular pressures were measured in animals in each group once in three days using a Tonometer. The readings were documented for each eye separately.

[3] = system: intraocular pressure, induced left eye; experiment: Intraocular pressure, tonometer (Table 13); design: unit not given beside the values; conditions: left eye induced/treated
Description: as §2, §4, §5

[4] = system: cataract and intraocular pressure/glaucoma in induced rabbit eye; experiment: Overall efficacy in cataract reduction and reducing intraocular pressure; conditions: for overall efficacy (in words): second study, 0.5% rosmarinic acid (G2), 0.25% caffeic acid (G6); for overall efficacy / order of efficacy (in words): third study, cataract reduction and reducing intraocular pressure, highest to lowest
Description: as §1
The following preclinical studies were conducted in rabbit model to test the efficacy of various active ingredients.
as §2, §4

[5] = system: cataract induced left eye; experiment: Macroscopic examination, cataract induced left eye (cinnamic acid derivatives, Tables 10-11); conditions: left eye (cataract induced), macroscopic
Description: as §1, §2, §4

[6] = system: cataract induced left eye: lens and cornea; experiment: Microscopic examination (histopathology) of lens and cornea (Table 16); conditions: for cataract efficacy, histopathology (in words): Table 16
Description: as §1, §2, §3

[7] = system: cataract induced left eye; experiment: Macroscopic examination, cataract induced left eye (Tables 14-15); conditions: for cataract efficacy, macroscopic (in words): Table 15; for No Abnormality Detected, incidence: left eye (cataract induced), macroscopic
Description: as §1, §2, §4

[8] = left eye (cataract induced), lens
[9] = left eye (cataract induced), lens, number of animals
[10] = Day 28, ↓↓ = Significantly low at P ≤ 0.01 compared to respective control

O=C(O)/C=C/c1ccc(O)c(O)c1 [Caffeic acid]
histopathological findings, lens (in words) ([1]; Table 12, G2 0.5% rosmarinic acid, G6 0.25% caffeic acid): a higher incidence of lenticular degeneration
Within Normal Histological Limits, incidence ([1]; left eye (cataract induced)): 0/6
Epithelial proliferation, incidence [1, 8]: 3/6
Epithelial proliferation: Absent, incidence [1, 8]: 3/6
Lenticular Degeneration, incidence [1, 8]: 6/6
Liquefaction, incidence [1, 8]: 4/6
Liquefaction: Absent, incidence [1, 8]: 2/6
Epithelial proliferation: Mild, incidence [1, 9]: 1
Epithelial proliferation: Minimal, incidence [1, 9]: 1
Epithelial proliferation: Moderate, incidence [1, 9]: 1
Liquefaction: Mild, incidence [1, 9]: 1
Liquefaction: Minimal, incidence [1, 9]: 2
Liquefaction: Moderate, incidence [1, 9]: 1
Intraocular pressure, Mean, Left eye ([2]; Day 3): 41.50 mmHg
Intraocular pressure, Mean, Left eye ([2]; Day 6): 23.89 mmHg
Intraocular pressure, Mean, Left eye ([2]; Day 9): 21.61 mmHg
Intraocular pressure, Mean, Left eye ([2]; Day 12): 25.33 mmHg
Intraocular pressure, Mean, Left eye ([2]; Day 15): 25.11 mmHg
Intraocular pressure, Mean, Left eye ([2]; Day 18): 29.56 mmHg
Intraocular pressure, Mean, Left eye ([2]; Day 21): 29.94 mmHg
Intraocular pressure, Mean, Left eye ([2]; Day 25): 24.78 mmHg
Intraocular pressure, Mean, Left eye [2, 10]: 21.11↓↓ mmHg
Intraocular pressure, Mean, Right eye ([2]; Day 3): 15.83 mmHg
Intraocular pressure, Mean, Right eye ([2]; Day 6): 19.11 mmHg
Intraocular pressure, Mean, Right eye ([2]; Day 9): 16.61 mmHg
Intraocular pressure, Mean, Right eye ([2]; Day 12): 16.94 mmHg
Intraocular pressure, Mean, Right eye ([2]; Day 15): 14.61 mmHg
Intraocular pressure, Mean, Right eye ([2]; Day 18): 15.44 mmHg
Intraocular pressure, Mean, Right eye ([2]; Day 21): 15.28 mmHg
Intraocular pressure, Mean, Right eye ([2]; Day 25): 17.17 mmHg
Intraocular pressure, Mean, Right eye ([2]; Day 28): 17.11 mmHg
intraocular pressure following treatment [2]: 21.11 mmHg
mean intraocular pressure initially measured [2]: 41.5 mmHg
Intraocular Pressure, mean ([3]; Day 3): 90.35
Intraocular Pressure, mean ([3]; Day 6): 63.22
Intraocular Pressure, mean ([3]; Day 9): 62.17
Intraocular Pressure, mean ([3]; Day 12): 65.93
Intraocular Pressure, mean ([3]; Day 15): 45.45
Intraocular Pressure, mean ([3]; Day 18): 45.73
Intraocular Pressure, mean ([3]; Day 21): 41.50
Intraocular Pressure, mean ([3]; Day 24): 38.93
Intraocular Pressure, mean ([3]; Day 27): 32.12
Intraocular Pressure, mean ([3]; Day 30): 30.78
Intraocular Pressure, mean ([3]; Day 33): 26.60↓↓
overall efficacy (in words) [4]: showed promise
overall efficacy (in words) ([4]; listed as caffeic acid): shown to be the best
overall efficacy / order of efficacy (in words) [4]: showed the best results, with remarkable efficacy not only in cataract reduction but also in addressing glaucoma; also recorded: Caffeic Acid G3>Epigallocatechin Gallate G4>Encapsulated Feruloyl Tyramine G5>Ferulic Acid G6>Rosmarinic Acid+Caffeic Acid G2
Opacity, cornea and red discoloured, with diffuse opacity: Moderate, incidence [5]: 1/6
Opacity, cornea, diffuse: Mild, incidence [5]: 1/6
Opacity, cornea, diffuse: Minimal, incidence [5]: 1/6
Opacity, cornea, diffuse: Moderate, incidence [5]: 1/6
No Abnormality Detected, incidence ([5]; animals affected/6): 1/6
cataract efficacy, histopathology (in words) [6]: fully regenerated in 5 out of 6 animals, from severe degeneration to a minimal scale; also recorded: One animal exhibited complete recovery
Lens, Liquefaction: Minimal, incidence ([6]; left eye induced): 5/6
No abnormality (histopathology), incidence ([6]; left eye induced): 1/6
cataract efficacy, macroscopic (in words) [7]: all 6 animals were completely recovered, and no cataract was observed at all
No Abnormality Detected, incidence [7]: 6/6

O=C(O[C@@H]1Cc2c(O)cc(O)cc2O[C@@H]1c1cc(O)c(O)c(O)c1)c1cc(O)c(O)c(O)c1 [Epigallocatechin Gallate, (2R,3R)-2-(3,4,5-trihydroxyphenyl)-3,4-dihydro-1(2H)-benzopyran-3,5,7-triol 3-(3,4,5-trihydroxy benzoate)]
Intraocular pressure, Mean, Left eye ([2]; Day 3): 29.72 mmHg
Intraocular pressure, Mean, Left eye ([2]; Day 6): 33.06 mmHg
Intraocular pressure, Mean, Left eye ([2]; Day 9): 26.56 mmHg
Intraocular pressure, Mean, Left eye ([2]; Day 12): 32.50 mmHg
Intraocular pressure, Mean, Left eye ([2]; Day 15): 26.39 mmHg
Intraocular pressure, Mean, Left eye ([2]; Day 18): 28.94 mmHg
Intraocular pressure, Mean, Left eye ([2]; Day 21): 27.11 mmHg
Intraocular pressure, Mean, Left eye ([2]; Day 25): 25.56 mmHg
Intraocular pressure, Mean, Left eye [2, 10]: 20.00↓↓ mmHg
Intraocular pressure, Mean, Right eye ([2]; Day 3): 18.11 mmHg
Intraocular pressure, Mean, Right eye ([2]; Day 6): 16.94 mmHg
Intraocular pressure, Mean, Right eye ([2]; Day 9): 16.78 mmHg
Intraocular pressure, Mean, Right eye ([2]; Day 12): 17.00 mmHg
Intraocular pressure, Mean, Right eye ([2]; Day 15): 12.56 mmHg
Intraocular pressure, Mean, Right eye ([2]; Day 18): 16.61 mmHg
Intraocular pressure, Mean, Right eye ([2]; Day 21): 16.06 mmHg
Intraocular pressure, Mean, Right eye ([2]; Day 25): 18.17 mmHg
Intraocular pressure, Mean, Right eye ([2]; Day 28): 16.11 mmHg
intraocular pressure following treatment [2]: 20.00 mmHg
mean intraocular pressure initially measured [2]: 29.72 mmHg
overall efficacy / order of efficacy (in words) [4]: outstanding efficacy in reducing cataracts and also demonstrated a significant capability to address glaucoma; also recorded: Caffeic Acid G3>Epigallocatechin Gallate G4>Encapsulated Feruloyl Tyramine G5>Ferulic Acid G6>Rosmarinic Acid+Caffeic Acid G2
cataract efficacy, histopathology (in words) [6]: fully restored, or regenerated in all 6 out of 6 animals, transitioning from severe degeneration to a milder state; also recorded: Only one animal exhibited mild corneal inflammation
Cornea, Inflammation: Mild, incidence ([6]; left eye induced): 1/6
Lens, Liquefaction: Mild, incidence ([6]; left eye induced): 6/6
cataract efficacy, macroscopic (in words) [7]: complete recovery in all 6 animals, with no observable cataracts
No Abnormality Detected, incidence [7]: 6/6

COc1cc(/C=C/C(=O)O)ccc1O [Ferulic acid]
Intraocular pressure, Mean, Left eye ([2]; Day 3): 30.39 mmHg
Intraocular pressure, Mean, Left eye ([2]; Day 6): 28.39 mmHg
Intraocular pressure, Mean, Left eye ([2]; Day 9): 28.28 mmHg
Intraocular pressure, Mean, Left eye ([2]; Day 12): 25.33 mmHg
Intraocular pressure, Mean, Left eye ([2]; Day 15): 26.00 mmHg
Intraocular pressure, Mean, Left eye ([2]; Day 18): 26.56 mmHg
Intraocular pressure, Mean, Left eye ([2]; Day 21): 23.22 mmHg
Intraocular pressure, Mean, Left eye ([2]; Day 25): 21.72 mmHg
Intraocular pressure, Mean, Left eye [2, 10]: 23.67↓↓ mmHg
Intraocular pressure, Mean, Right eye ([2]; Day 3): 17.28 mmHg
Intraocular pressure, Mean, Right eye ([2]; Day 6): 16.89 mmHg
Intraocular pressure, Mean, Right eye ([2]; Day 9): 16.89 mmHg
Intraocular pressure, Mean, Right eye ([2]; Day 12): 17.56 mmHg
Intraocular pressure, Mean, Right eye ([2]; Day 15): 14.94 mmHg
Intraocular pressure, Mean, Right eye ([2]; Day 18): 14.94 mmHg
Intraocular pressure, Mean, Right eye ([2]; Day 21): 17.06 mmHg
Intraocular pressure, Mean, Right eye ([2]; Day 25): 17.61 mmHg
Intraocular pressure, Mean, Right eye ([2]; Day 28): 17.28 mmHg
intraocular pressure following treatment [2]: 23.67 mmHg
mean intraocular pressure initially measured [2]: 30.39 mmHg
overall efficacy / order of efficacy (in words) [4]: Caffeic Acid G3>Epigallocatechin Gallate G4>Encapsulated Feruloyl Tyramine G5>Ferulic Acid G6>Rosmarinic Acid+Caffeic Acid G2
cataract efficacy, histopathology (in words) [6]: minimal to moderate lenticular degeneration
Lens, Liquefaction: Mild, incidence ([6]; left eye induced): 4/6
Lens, Liquefaction: Minimal, incidence ([6]; left eye induced): 1/6
Lens, Liquefaction: Moderate, incidence ([6]; left eye induced): 1/6
cataract efficacy, macroscopic (in words) [7]: complete recovery from cataracts in all 6 animals
No Abnormality Detected, incidence [7]: 6/6
